From patent US10975077B2 (Novira Therapeutics, Inc., priority 2016, dated 2021)

system: HBV (encapsidated HBV DNA, HepG2.2.15 cells); test: HBV replication inhibition assay, BDNA assay in HepG2.2.15 cells; type: cell-based; details: Activity in BDNA-assay
How it was run: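 HepG2.2.15 cells (stably integrated HBV, 40,000/well) treated with serially diluted compound in 0.5% DMSO for 6 days, medium and compound refreshed at day 3. DNase-treated supernatant lysed with proteinase K; encapsidated HBV DNA quantified by bDNA, percent inhibition versus DMSO controls, EC50 by nonlinear fit.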

SMILES | EC50 [nM]
CN1CC(CNCC(F)F)Cn2nc3c(c2C1=O)CN(C(=O)Nc1cc(Br)c(F)cc1F)CC3 (single isomer, unassigned) [Compound 125_E1, (R*)—N-(5-bromo-2,4-difluorophenyl)-8-(((2,2-difluoroethyl)amino)methyl)-10-methyl-11-oxo-1,3,4,7,8,9,10,11-octahydro-2H-pyrido[4′,3′:3,4]pyrazolo[1,5-a][1,4]diazepine-2-carboxamide] | 100 to 500
CCC(O)C1CN(C)C(=O)c2c3c(nn2C1)CCN(C(=O)Nc1ccc(F)c(C(F)(F)F)c1)C3 (single isomer, unassigned) [Compound 099_E1, (R*)—N-(4-fluoro-3-(trifluoromethyl)phenyl)-8-((S*)-1-hydroxypropyl)-10-methyl-11-oxo-1,3,4,7,8,9,10,11-octahydro-2H-pyrido[4′,3′:3,4]pyrazolo[1,5-a][1,4]diazepine-2-carboxamide] | 1 to 100
CCC(O)C1CN(C)C(=O)c2c3c(nn2C1)CCN(C(=O)Nc1ccc(F)c(C#N)c1F)C3 (single isomer, unassigned) [Compound 098_E1, (R*)—N-(3-cyano-2,4-difluorophenyl)-8-((S*)-1-hydroxypropyl)-10-methyl-11-oxo-1,3,4,7,8,9,10,11-octahydro-2H-pyrido[4′,3′:3,4]pyrazolo[1,5-a][1,4]diazepine-2-carboxamide] | 1 to 100
C[C@@H]1Cc2nn3c(c2CN1C(=O)Nc1cc(C(F)(F)F)c(F)cc1F)C(=O)N(C)CC(CO)C3 (single isomer, unassigned) [Compound 082_D1, (3R,8S*)—N-(2,4-difluoro-5-(trifluoromethyl)phenyl)-8-(hydroxmethyl)-3,10-dimethyl-11-oxo-1,3,4,7,8,9,10,11-octahydro-2H-pyrido[4′,3′:3,4]pyrazolo[1,5-a][1,4]diazepine-2-carboxamide] | 1 to 100
C[C@@H]1Cc2nn3c(c2CN1C(=O)Nc1ccc(F)c(C#N)c1)C(=O)N(C)CC(CO)C3 (single isomer, unassigned) [Compound 087_D2, (3R,8R*)—N-(3-cyano-4-fluorophenyl)-8-(hydroxymethyl)-3,10-dimethyl-11-oxo-1,3,4,7,8,9,10,11-octahydro-2H-pyrido[4′,3′:3,4]pyrazolo[1,5-a][1,4]diazepine-2-carboxamide] | 1 to 100
CCC(O)C1CN(C)C(=O)c2c3c(nn2C1)CCN(C(=O)Nc1ccc(F)c(C#N)c1)C3 (single isomer, unassigned) [Compound 097_E1, (R*)—N-(3-cyano-4-fluorophenyl)-8-((S*)-1-hydroxypropyl)-10-methyl-11-oxo-1,3,4,7,8,9,10,11-octahydro-2H-pyrido[4′,3′:3,4]pyrazolo[1,5-a][1,4]diazepine-2-carboxamide] | 1 to 100
CN1CC(CNCC(F)F)Cn2nc3c(c2C1=O)CN(C(=O)Nc1ccc(F)c(C#N)c1F)CC3 (single isomer, unassigned) [Compound 127_E2, (S*)—N-(3-cyano-2,4-difluorophenyl)-8-(((2,2-difluoroethyl)amino)methyl)-10-methyl-11-oxo-1,3,4,7,8,9,10,11-octahydro-2H-pyrido[4′,3′:3,4]pyrazolo[1,5-a][1,4]diazepine-2-carboxamide] | 1 to 100
C=CC(O)C1CN(C)C(=O)c2c3c(nn2C1)CC(C)N(C(=O)Nc1ccc(F)c(C#N)c1)C3 (single isomer, unassigned) [Compound 123_D1, (3R,8S*)—N-(3-cyano-4-fluorophenyl)-8-((R*)-1-hydroxyallyl)-3,10-dimethyl-11-oxo-1,3,4,7,8,9,10,11-octahydro-2H-pyrido[4′,3′:3,4]pyrazolo[1,5-a][1,4]diazepine-2-carboxamide] | 1 to 100
C[C@@H]1Cc2nn3c(c2CN1C(=O)Nc1ccc(F)c(Cl)c1)C(=O)N(C)CC(C)(F)C3 (single isomer, unassigned) [Compound 079_D2, (3R,8S*)—N-(3-chloro-4-fluorophenyl)-8-fluoro-3,8,10-trimethyl-11-oxo-1,3,4,7,8,9,10,11-octahydro-2H-pyrido[4′,3′:3,4]pyrazolo[1,5-a][1,4]diazepine-2-carboxamide] | 1 to 100
CCC(O)C1CN(C)C(=O)c2c3c(nn2C1)CCN(C(=O)Nc1ccc(F)c(C(F)(F)F)c1)C3 (single isomer, unassigned) [Compound 099_E2, (S*)—N-(4-fluoro-3-(trifluoromethyl)phenyl)-8-((R*)-1-hydroxypropyl)-10-methyl-11-oxo-1,3,4,7,8,9,10,11-octahydro-2H-pyrido[4′,3′:3,4]pyrazolo[1,5-a][1,4]diazepine-2-carboxamide] | 100 to 500

same assay, conditions: Hepatitis B virus, HepG2.2.15, Activity in BDNA-assay

SMILES | EC50 [nM]
Cc1cc(NC(=O)N2Cc3c(nn4c3C(=O)N(CC(F)F)CCC4)C[C@H]2C)ccc1F [Compound 077, (R)-10-(2,2-difluoroethyl)-N-(4-fluoro-3-methylphenyl)-3-methyl-11-oxo-1,3,4,7,8,9,10,11-octahydro-2H-pyrido[4′,3′:3,4]pyrazolo[1,5-a][1,4]diazepine-2-carboxamide] | 1 to 100
CN1CC(C)(CO)Cn2nc3c(c2C1=O)CN(C(=O)Nc1ccc(F)c(Cl)c1)CC3 (stereo not shown) [Compound 053, N-(3-chloro-4-fluorophenyl)-8-(hydroxymethyl)-8,10-dimethyl-11-oxo-1,3,4,7,8,9,10,11-octahydro-2H-pyrido[4′,3′:3,4]pyrazolo[1,5-a][1,4]diazepine-2-carboxamide] | 1 to 100
CN1CC(N2CCCC2)Cn2nc3c(c2C1=O)CN(C(=O)Nc1ccc(F)c(Cl)c1)CC3 (stereo not shown) [Compound 024, N-(3-chloro-4-fluorophenyl)-10-methyl-11-oxo-8-(pyrrolidin-1-yl)-1,3,4,7,8,9,10,11-octahydro-2H-pyrido[4′,3′:3,4]pyrazolo[1,5-a][1,4]diazepine-2-carboxamide] | 1 to 100
CCOC(=O)C1CN(C)C(=O)c2c3c(nn2C1)CCN(C(=O)Nc1ccc(F)c(Cl)c1)C3 (stereo not shown) [Compound 030, ethyl 2-((3-chloro-4-fluorophenyl)carbamoyl)-10-methyl-11-oxo-2,3,4,7,8,9,10,11-octahydro-1H-pyrido[4′,3′:3,4]pyrazolo[1,5-a][1,4]diazepine-8-carboxylate] | > 1000
CN(C)C(=O)C1CCn2nc3c(c2C(=O)N1C)CN(C(=O)Nc1ccc(F)c(Cl)c1)CC3 (stereo not shown) [Compound 059, N2-(3-chloro-4-fluorophenyl)-N9,N9,10-trimethyl-11-oxo-1,3,4,7,8,9,10,11-octahydro-2H-pyrido[4′,3′:3,4]pyrazolo[1,5-a][1,4]diazepine-2,9-dicarboxamide] | 100 to 500
COC1CN(C)C(=O)c2c3c(nn2C1)CCN(C(=O)Nc1ccc(F)c(Cl)c1)C3 (single isomer, unassigned) [Compound 016B, (R*)—N-(3-chloro-4-fluorophenyl)-8-methoxy-10-methyl-11-oxo-3,4,8,9,10,11-hexahydro-1H-pyrido[4′,3′:3,4]pyrazolo[1,5-a][1,4]diazepine-2 (7H)-carboxamide] | 1 to 100
C[C@@H]1Cc2nn3c(c2CN1C(=O)Nc1ccc(F)c(Cl)c1)C(=O)N(C)CC(C)(F)C3 (single isomer, unassigned) [Compound 079_D1, (3R,8R*)—N-(3-chloro-4-fluorophenyl)-8-fluoro-3,8,10-trimethyl-11-oxo-1,3,4,7,8,9,10,11-octahydro-2H-pyrido[4′,3′:3,4]pyrazolo[1,5-a][1,4]diazepine-2-carboxamide] | 1 to 100
CN1CC(CCO)Cn2nc3c(c2C1=O)CN(C(=O)Nc1ccc(F)c(Cl)c1)CC3 (stereo not shown) [Compound 029] | 100 to 500
CN1CC2(CC(O)C2)Cn2nc3c(c2C1=O)CN(C(=O)Nc1ccc(F)c(Cl)c1)CC3 (stereo not shown) [Compound 132, N-(3-chloro-4-fluorophenyl)-3-hydroxy-10′-methyl-11′-oxo-1′,3′,4′,9′,10′,11′-hexahydro-2′H,7′H-spiro[cyclobutane-1,8′-pyrido[4′,3′:3,4]pyrazolo [1,5-a][1,4]diazepine]-2′-carboxamide] | 1 to 100
C[C@@H]1Cc2nn3c(c2CN1C(=O)Nc1ccc(F)c(C(F)(F)F)c1)C(=O)N(C)CC(F)(CO)C3 (single isomer, unassigned) [Compound 133_D1, (3R,8R*)-8-fluoro-N-(4-fluoro-3-(trifluoromethyl)phenyl)-8-(hydroxymethyl)-3,10-dimethyl-11-oxo-1,3,4,7,8,9,10,11-octahydro-2H-pyrido[4′,3′:3,4]pyrazolo[1,5-a][1,4]diazepine-2-carboxamide_D1] | 1 to 100
CC1CCn2nc3c(c2C(=O)N1C)CN(C(=O)Nc1ccc(F)c(Cl)c1)CC3 (stereo not shown) [Compound 039, N-(3-chloro-4-fluorophenyl)-9,10-dimethyl-11-oxo-1,3,4,7,8,9,10,11-octahydro-2H-pyrido[4′,3′:3,4]pyrazolo[1,5-a][1,4]diazepine-2-carboxamide] | 1 to 100
CN1CC(CN)Cn2nc3c(c2C1=O)CN(C(=O)Nc1ccc(F)c(C(F)(F)F)c1)CC3 (stereo not shown) [Compound 093, 8-(aminomethyl)-N-[4-fluoro-3-(trifluoromethyl)phenyl]-10-methyl-11-oxo-1,3,4,7,8,9-hexahydropyrido[2,3]pyrazolo[2,4-b][1,4]diazepine-2-carboxamide] | 100 to 500
CN1CC(C(O)CC2CC2)Cn2nc3c(c2C1=O)CN(C(=O)Nc1ccc(F)c(Cl)c1)CC3 (stereo not shown) [Compound 047, N-(3-chloro-4-fluoro-phenyl)-8-(2-cyclopropyl-1-hydroxy-ethyl)-10-methyl-1-oxo-1,3,4,7,8,9-hexahydropyrido[2,3]pyrazolo[2,4-b][1,4]diazepine-2-carboxamide] | 1 to 100
COC(=O)CC1CN(C)C(=O)c2c3c(nn2C1)CCN(C(=O)Nc1ccc(F)c(Cl)c1)C3 (stereo not shown) [Compound 028, methyl 2-(2-((3-chloro-4-fluorophenyl)carbamoyl)-10-methyl-11-oxo-1,3,4,7,8,9,10,11-octahydro-2H-pyrido[4′,3′:3,4]pyrazolo[1,5-a][1,4]1diazepin-8-yl)acetate] | 100 to 500
CN1CC(F)Cn2nc3c(c2C1=O)CN(C(=O)Nc1ccc(F)c(C(F)(F)F)c1)CC3 (stereo not shown) [Compound 011, 8-fluoro-N-(4-fluoro-3-(trifluoromethyl)phenyl)-10-methyl-11-oxo-1,3,4,7,8,9,10,11-octahydro-2H-pyrido[4′,3′:3,4]pyrazolo[1,5-a][1,4]diazepine-2-carboxamide] | 1 to 100
